Source: paper PMC9452538, “The antimicrobial peptide LI14 combats multidrug-resistant bacterial infections” (Communications Biology, 2022)
In brackets after ≈: the same amount, converted by molar mass. Peptide text beside a SMILES is read from it.

Key:
E. coli 1F28 (tet(X4)) = experiment: microbe, parasite or virus in culture; format: cell-based, Escherichia coli; conditions: 1F28 (tet(X4))
Outline: (§1)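 Broth microdilution per CLSI 2021 guidelines. Exponential-phase bacteria were diluted 1:1000 into MHB, and 1.5 × 10^6 CFUs/mL suspension was mixed with serially varied peptide concentrations to determine MIC.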

E. coli B3-1 (tet(X4)) = experiment: microbe, parasite or virus in culture; format: cell-based, Escherichia coli; conditions: B3-1 (tet(X4))
Outline: as §1

E. coli CP131 (mcr-3) = experiment: microbe, parasite or virus in culture; format: cell-based, Escherichia coli; conditions: CP131 (mcr-3)
Outline: as §1

E. coli G6 (blaNDM-5) = experiment: microbe, parasite or virus in culture; format: cell-based, Escherichia coli; conditions: G6 (blaNDM-5)
Outline: as §1

[1] = tested on: K. pneumoniae ATCC 700603; experiment: microbe, parasite or virus in culture; format: cell-based, Klebsiella pneumoniae; conditions: ATCC 700603
Outline: as §1

[2] = tested on: K. pneumoniae D120 (mcr-8); experiment: microbe, parasite or virus in culture; format: cell-based, Klebsiella pneumoniae; conditions: D120 (mcr-8)
Outline: as §1

[3] = tested on: P. cibarius HNCF44W (blaNDM-1 + tet(X6)); experiment: organism not typed; format: cell-based
Outline: as §1

[4] = tested on: MRSA T144 and E. coli B2 established biofilms; experiment: Treatment of established biofilms; format: cell-based; conditions: 128 μg/mL LI14, 2 h
Experimental: In MHB medium, a mid-logarithmic growth-phase culture was diluted to 10^6 CFUs/ml. A 96-well flat bottom plate was filled with 100 μL of this bacterial suspension per well, which was cultured at 37 °C for 36 h to create mature biofilms. […] Plates were sonicated for 10 min after incubation to remove adhering bacteria, and the number of live bacteria was counted microbiologically.

Question: Which MIC (E. coli 1F28 (tet(X4))) does the source give for CC[C@H](C)[C@H](NC(=O)[C@H](CCCNC(=N)N)NC(=O)[C@H](CS)NC(=O)[C@H](CC(C)C)NC(=O)[C@H](CCCCN)NC(=O)[C@H](CCCCN)NC(=O)[C@H](CC(C)C)NC(=O)[C@@H](NC(=O)[C@H](CCCNC(=N)N)NC(=O)[C@H](CS)NC(=O)[C@H](CC(C)C)NC(=O)[C@H](CCCCN)NC(=O)[C@H](CCCCN)NC(=O)[C@@H](N)CC(C)C)[C@@H](C)CC)C(N)=O [LI14] (H-LKKLCRILKKLCRI-NH2) here?
Answer: 8 µg/mL (≈ 4.63 µM)

Question: And the MIC (E. coli B3-1 (tet(X4)))?
Answer: 8 µg/mL (≈ 4.63 µM)

Question: What about the MIC (E. coli CP131 (mcr-3)) of the same compound?
Answer: 4 µg/mL (≈ 2.32 µM)

Question: And the MIC (E. coli G6 (blaNDM-5))?
Answer: 4 µg/mL (≈ 2.32 µM)

Question: What about the MIC [1] of the same compound?
Answer: 32 µg/mL (≈ 18.5 µM)

Question: What about the MIC [2] of the same compound?
Answer: 32 µg/mL (≈ 18.5 µM)

Question: And the MIC [3]?
Answer: 8 µg/mL (≈ 4.63 µM)

Question: What about the “Eradication of established biofilms” value [4] of the same compound?
Answer: almost eradicated all established biofilms
